Several values for one entry are separate records, joined by “and”; a condition that tells them apart may be missing. Identical values can stand only once. Like-named read-outs stand apart in the source and are kept apart here.
Assays:
Multiple Sclerosis = details: two phase III trials; cited from earlier work
[1] = in vivo; cited from earlier work
[2] = system: MOG induced EAE in C57 BI mice; assay: Interferon-β s.c. daily alone or in combination with laquinimod in chronic MOG induced EAE; format: in vivo, C57BL/6 mice; details: for Activity compared to Laquinimod: Table 6
[3] = Laquinimod 10 mg/kg oral QD, compared to vehicle
[4] = Laquinimod 25 mg/kg oral QD, compared to laquinimod (10 mg/kg)
[5] = Laquinimod 25 mg/kg oral QD, compared to vehicle

SMILES: CCN(C(=O)c1c(O)c2c(Cl)cccc2n(C)c1=O)c1ccccc1 [Laquinimod]
- Safety and tolerability profile (Multiple Sclerosis): favorable
- Oral bioavailability [1]: high
- Mean Onset [2]: 21.4 ± 8.2 days
- GMS value (group mean score) ([2]; Laquinimod 10 mg/kg oral QD): 0.8 ± 0.8 and 0.8
- Incidence ([2]; Laquinimod 10 mg/kg oral QD): 8/13
- MMS value (mean maximal score) ([2]; Laquinimod 10 mg/kg oral QD): 1.8 ± 1.7
- Mean Duration ([2]; Laquinimod 10 mg/kg oral QD): 9.2 ± 8.3 days
- Mean Onset ([2]; Laquinimod 10 mg/kg oral QD): 21.3 ± 8.2 days
- Mortality ([2]; Laquinimod 10 mg/kg oral QD): 0/13
- % inhibition 1 (incidence) [2, 3]: 38.5%
- % inhibition 2 (MMS) [2, 3]: 43.8%
- % inhibition 3 (GMS); Activity [2, 3]: 60%
- % inhibition 3 (GMS); Activity ([2]; Laquinimod 10 mg/kg oral QD, compared to vehicle, listed as laquinimod): 60%
- GMS value (group mean score) ([2]; Laquinimod 10 mg/kg oral QD, listed as Laquinmod): 0.8 ± 0.8
- Activity compared to Laquinimod ([2]; Laquinimod 10 mg/kg): 60%
- GMS value (group mean score) ([2]; Laquinimod 25 mg/kg oral QD): 0.3
- Incidence ([2]; Laquinimod 25 mg/kg oral QD): 5/15
- MMS value (mean maximal score) ([2]; Laquinimod 25 mg/kg oral QD): 0.8 ± 1.3
- Mean Duration ([2]; Laquinimod 25 mg/kg oral QD): 5.0 ± 7.4 days
- Mean Onset ([2]; Laquinimod 25 mg/kg oral QD): 25.7 ± 7.8 days
- Mortality ([2]; Laquinimod 25 mg/kg oral QD): 0/15
- % inhibition 1 (incidence) [2, 4]: 37.5%
- % inhibition 2 (MMS) [2, 4]: 55.5%
- % inhibition 3 (GMS) [2, 4]: 62.5%
- % inhibition 1 (incidence) [2, 5]: 61.5%
- % inhibition 2 (MMS) [2, 5]: 75.0%
- % inhibition 3 (GMS); Activity [2, 5]: 85%
- % inhibition 3 (GMS); Activity ([2]; Laquinimod 25 mg/kg oral QD, compared to vehicle, listed as Laquiniomd): 85.0%
- GMS value (group mean score) ([2]; Laquinimod 25 mg/kg oral QD, listed as Laquiniomd): 0.3 ± 0.5
- GMS value (group mean score) ([2]; Laquinimod 25 mg/kg oral QD, listed as Laquinmod): 0.3 ± 0.5
- Activity compared to Laquinimod ([2]; Laquinimod 25 mg/kg): 85%
- Activity compared to interferon-β (500,000 IU/mouse) ([2]; Laquinimod 25 mg/kg, according to GMS): 66.7%^

— patent US20160166648A1, “Treatment of Multiple Sclerosis With Combination of Laquinimod and Interferon-Beta” (Teva Pharmaceutical Industries, Ltd., priority 2011, published 2016)
